The results in this text go back to PubChem BioAssay (NCI).

SMILES strings stand for the structures. Where “and” joins values, the source holds several entries; their conditions need not be identical. Equal values may be shown once.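 Cultured in 96-well plates, cells were exposed to test compound for 48 hours across five concentrations. At the GI50, growth is halved. Definition used: TGI = concentration required for complete inhibition of growth.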

Some test systems named below: CAKI-1 renal; M14 melanoma; OVCAR-3 ovarian; RPMI-8226 leukemia; SF-295 CNS; SF-539 CNS; SK-MEL-2 melanoma; SK-OV-3 ovarian; SNB-19 CNS; SNB-75 CNS.
Experiment in all cases: NCI tumour cell line growth inhibition, 48 h

Regarding `O=C(CI)Nc1ccc(O)c2ccccc12`, the GI50 in the assay on CAKI-1 renal is 690 nM; with M14 melanoma, 1060 nM; in the assay with OVCAR-3 ovarian, 857 nM; in the assay on RPMI-8226 leukemia, 1650 nM; with SF-295 CNS, 3380 nM; in the assay with SF-539 CNS, 1800 nM. The GI50 was 2930 nM in the assay with SK-MEL-2 melanoma, 4.27 µM with SK-OV-3 ovarian, 3.39 µM in the assay with SNB-19 CNS and 1610 nM in the assay with SNB-75 CNS. Besides, the TGI with CAKI-1 renal was 1.84 µM; in the assay on M14 melanoma, 2.63 µM; in the assay on OVCAR-3 ovarian, 2230 nM; in the assay with RPMI-8226 leukemia it was 4.61 µM; with SF-295 CNS, 11.3 µM; in the assay with SF-539 CNS, 4.47 µM. Besides, the TGI turned out to be 9.22 µM with SK-MEL-2 melanoma, 14.8 µM in the assay on SK-OV-3 ovarian, 11.7 µM with SNB-19 CNS and 4.98 µM with SNB-75 CNS.

Consider `C[n+]1c2ccccc2nc2ccccc21`, for which the GI50 is 2090 nM in the assay with CAKI-1 renal; 1670 nM in the assay with M14 melanoma; 338 nM with OVCAR-3 ovarian; 343 nM in the assay with RPMI-8226 leukemia; 1540 nM with SF-295 CNS; 1680 nM with SF-539 CNS. The GI50 in the assay on SK-MEL-2 melanoma was 1760 nM; in the assay with SK-OV-3 ovarian, 4.59 µM; in the assay with SNB-19 CNS it was 4.03 µM; with SNB-75 CNS, 1380 nM. The TGI worked out at 6.42 µM in the assay with CAKI-1 renal; 3.89 µM with M14 melanoma; 1190 nM in the assay on OVCAR-3 ovarian; 16.3 µM in the assay with RPMI-8226 leukemia; 4.19 µM in the assay on SF-295 CNS; 4.76 µM in the assay with SF-539 CNS. In addition, the TGI with SK-MEL-2 melanoma was 4.54 µM; with SK-OV-3 ovarian, 18.1 µM; with SNB-19 CNS it was 16.8 µM; with SNB-75 CNS it was 3.1 µM.

Consider `CCC1(OC(=O)CN)C(=O)OCc2c1cc1n(c2=O)Cc2cc3ccccc3nc2-1` (stereo not drawn), for which the GI50 was 7.39 nM with CAKI-1 renal; 17.9 nM in the assay with M14 melanoma; 308 nM in the assay with OVCAR-3 ovarian; 31 nM in the assay with RPMI-8226 leukemia; 2.49 nM in the assay with SF-295 CNS; 37.8 nM with SF-539 CNS. Besides, the GI50 in the assay with SK-MEL-2 melanoma is 492 nM; in the assay on SK-OV-3 ovarian it was 0.0224 µM; in the assay with SNB-19 CNS it was 0.0128 µM; in the assay on SNB-75 CNS it was 18.3 nM. Besides, the TGI is 0.846 µM and 0.174 µM with M14 melanoma; 731 nM and 557 nM in the assay with OVCAR-3 ovarian; 0.209 µM in the assay with RPMI-8226 leukemia; 0.191 µM and 0.0253 µM with SF-539 CNS; 0.932 µM and 0.407 µM in the assay with SK-MEL-2 melanoma; over 54.3 µM in the assay with SK-OV-3 ovarian. In addition, the TGI is 4.91 µM with SNB-19 CNS; 0.246 µM and 0.484 µM with SNB-75 CNS.

For the molecule `CCOC(=O)C12C(C(=O)OC)=C(C)N(NC(=O)Nc3ccccc3)C1(N)N(NC(=O)Nc1ccccc1)C(C)=C2C(=O)OC` (stereo not drawn), the TGI with CAKI-1 renal is over 100 µM; in the assay on M14 melanoma it was 45.6 µM; in the assay with OVCAR-3 ovarian, 60200 nM; with RPMI-8226 leukemia it was 74 µM; with SF-295 CNS, 60 µM; in the assay on SF-539 CNS, 37.9 µM. For the same molecule, the TGI with SK-MEL-2 melanoma is 37.5 µM; in the assay on SK-OV-3 ovarian, over 100 µM; in the assay with SNB-19 CNS, over 100 µM; in the assay with SNB-75 CNS, over 100 µM.

Regarding `COc1ccc(/C(C#N)=C/c2cc(OC)c(OC)c(OC)c2)cc1`, the GI50 with CAKI-1 renal was 20100 nM; with M14 melanoma, 19300 nM; with OVCAR-3 ovarian, 33800 nM; with RPMI-8226 leukemia, 16600 nM; in the assay with SF-295 CNS, 15000 nM; in the assay on SF-539 CNS, 16100 nM. For the same molecule, the GI50 in the assay on SK-MEL-2 melanoma is 21900 nM; with SK-OV-3 ovarian, 35.8 µM; in the assay with SNB-19 CNS, 28 µM; in the assay with SNB-75 CNS it was 11600 nM. In addition, the TGI in the assay on CAKI-1 renal is over 100 µM; in the assay with M14 melanoma it was over 100 µM; in the assay on OVCAR-3 ovarian, over 100000 nM; with RPMI-8226 leukemia, 56.1 µM; with SF-295 CNS, 41.9 µM; in the assay on SF-539 CNS, 58 µM. The TGI in the assay on SK-MEL-2 melanoma is 82.2 µM; with SK-OV-3 ovarian it was over 100 µM; in the assay on SNB-19 CNS, over 100 µM; with SNB-75 CNS it was 87.7 µM.

Turning to `CC(C)C(=O)c1c(C(F)(F)F)n([O-])c2cc(F)c(F)cc2[n+]1=O`, the GI50 in the assay on CAKI-1 renal was 62.6 nM; in the assay with M14 melanoma it was 70.8 nM; in the assay on OVCAR-3 ovarian, 667 nM; with RPMI-8226 leukemia it was 66.6 nM; in the assay on SF-295 CNS, 1190 nM; with SF-539 CNS it was 381 nM. Besides, the GI50 with SK-MEL-2 melanoma was 234 nM; in the assay with SK-OV-3 ovarian, 1.04 µM; with SNB-19 CNS it was 1.34 µM; in the assay with SNB-75 CNS, 1080 nM. The TGI in the assay on CAKI-1 renal was determined as 0.5 µM; in the assay with M14 melanoma, 0.387 µM; in the assay with OVCAR-3 ovarian it was 2010 nM; in the assay on RPMI-8226 leukemia, 12.3 µM; in the assay on SF-295 CNS it was 2.56 µM; with SF-539 CNS it was 1 µM. In addition, the TGI was found to be 27.8 µM with SK-MEL-2 melanoma, 2.85 µM in the assay on SK-OV-3 ovarian, 3.08 µM in the assay on SNB-19 CNS and 2.75 µM with SNB-75 CNS.

`COC(=O)C(CC(=O)Nc1ccc(Cl)c(Cl)c1)C(=O)C(=O)Nc1ccc(Cl)c(Cl)c1` (stereo not drawn): the TGI in the assay on CAKI-1 renal is over 100 µM; in the assay with M14 melanoma, over 100 µM; in the assay on OVCAR-3 ovarian it was over 100000 nM; with RPMI-8226 leukemia, over 100 µM; in the assay with SF-295 CNS, over 100 µM; with SF-539 CNS it was over 100 µM. The TGI in the assay with SK-MEL-2 melanoma, in the assay on SK-OV-3 ovarian, in the assay on SNB-19 CNS and in the assay on SNB-75 CNS was over 100 µM throughout.

Take `C1CN(P2(N3CC3)=NP(N3CC3)(N3CC3)=NP(N3CC3)(N3CC3)=N2)CCO1` (stereo not drawn): the TGI with CAKI-1 renal is over 100 µM; in the assay with M14 melanoma, over 100 µM; in the assay on OVCAR-3 ovarian it was over 100000 nM; in the assay with RPMI-8226 leukemia, over 100 µM; with SF-295 CNS, over 100 µM; in the assay with SF-539 CNS, over 100 µM. Besides, the TGI in the assay with SK-MEL-2 melanoma, in the assay on SK-OV-3 ovarian, with SNB-19 CNS and with SNB-75 CNS was over 100 µM in each case.

Consider `CCOc1ccc(NCC2CC/C(=C\c3ccccc3OC)C2=O)cc1` (stereo not drawn), for which the TGI in the assay on CAKI-1 renal was 25.4 µM; in the assay with M14 melanoma, 12.1 µM; in the assay with OVCAR-3 ovarian it was 17100 nM; in the assay on RPMI-8226 leukemia, 3.91 µM; in the assay on SF-295 CNS, 32.3 µM; in the assay on SF-539 CNS, 23.9 µM. In addition, the TGI is 35.2 µM in the assay on SK-MEL-2 melanoma, 31.1 µM in the assay with SK-OV-3 ovarian, 30 µM with SNB-19 CNS and 31.1 µM with SNB-75 CNS.
